# Experimental data reported in patent publication US20240090503A1, “FUNGICIDAL OXADIAZOLES AND THEIR MIXTURES” (FMC CORPORATION, priority 2020, published 2024).
# Marks after values point to notes of the source that are not given here.
# Columns and labels:
# Format in all cases: in vivo
# [1] = tested on: Phakopsora pachyrhizi (the causal agent of Asian soybean rust); experiment: Test A: preventive spray on soybean seedlings, Asian soybean rust, visual disease rating; details: soybean seedlings
# Outline: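 Preventive test: soybean seedlings received a run-off spray of compound suspended at the set ppm in 50/50 acetone/water plus 250 ppm PEG400, and one day later a P. pachyrhizi spore inoculum. Visual scoring (0 none to 100 full disease control) followed 24 h saturated incubation and 8 days' growth chamber, both at 22° C.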
# [2] = tested on: Zymoseptoria tritici (the causal agent of wheat leaf blotch); experiment: Test B: preventive spray on wheat seedlings, wheat leaf blotch, visual disease rating; details: wheat seedlings
# Outline: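 This is a preventive test: spray application preceded Zymoseptoria tritici spore inoculation by one day. Test suspensions were in acetone/water with 250 ppm PEG400 surfactant, at the listed ppm rate. After 48 h saturated humidity at 24° C and 17 days at 20° C, visual ratings scored control from 0 to 100%.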
# [3] = tested on: Puccinia recondita f. sp. tritici (the causal agent of wheat leaf rust); experiment: Test C: preventive spray on wheat seedlings, wheat leaf rust, visual disease rating; details: wheat seedlings
# Outline: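 Wheat seedlings sprayed to run-off with compound in acetone/water (50/50) with 250 ppm PEG400, then inoculated with spores the following day. After 24 h saturated humidity at 20° C. and 6 days in growth chamber at 20° C., disease rated visually as % control relative to untreated controls.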
# [4] = test suspension 10 ppm, 100 = 100% disease control, 0 = no control
# [5] = 10 ppm test suspension, 100 = 100% disease control, 0 = no control
# [6] = 250 ppm test suspension, 100 = 100% disease control
structure (smiles),measurement,setting,value
FC(F)(F)c1nc(-c2ccc(Cn3cccn3)cc2)no1 [compound 162],Test A disease control rating,[1]; test suspension 250 ppm,100%
same,Test B disease control rating,[2]; test suspension 250 ppm,0%
same,Test C disease control rating,[3]; test suspension 250 ppm,100%
Cc1cc(C(F)(F)F)nn1Cc1ccc(-c2noc(C(F)(F)F)n2)cc1 [compound 132],Test A disease control rating,[1]; test suspension 270 ppm,100%
same,Test B disease control rating,[2]; test suspension 270 ppm,0%
same,Test C disease control rating,[3]; test suspension 270 ppm,95%
FC(F)(F)c1nc(-c2ccc(OCc3cn4cccnc4n3)cc2)no1 [compound 319],Test A disease control rating,[1]; [4],97%
same,Test B disease control rating,[2]; test suspension 250 ppm,33* %
same,Test C disease control rating,[3]; test suspension 10 ppm,0%
CCOC(=O)c1cnn(C(C)c2ccc(-c3noc(C(F)(F)F)n3)s2)c1 (stereo not drawn) [Compound 192],Test A disease control rating,[1]; [4],100%
same,Test B disease control rating,[2]; test suspension 250 ppm,99* %
same,Test C disease control rating,[3]; test suspension 10 ppm,100%
CC(C)c1nn(Cc2ccc(-c3noc(C(F)(F)F)n3)cc2)c(=O)n1C [compound 237],Test A disease control rating,[1]; test suspension 250 ppm,100%
same,Test B disease control rating,[2]; test suspension 250 ppm,94%
same,Test C disease control rating,[3]; test suspension 250 ppm,100%
CN(C)N1C(=O)C(Cl)=C(Oc2ccc(-c3noc(C(F)(F)F)n3)cc2)C1=O [compound 356],Test A disease control rating,[1]; test suspension 250 ppm,99%
same,Test B disease control rating,[2]; test suspension 250 ppm,96* %
same,Test C disease control rating,[3]; test suspension 250 ppm,94%
CCCc1nn(Cc2ccc(-c3noc(C(F)(F)F)n3)cc2)c(=O)n1C [compound 238],Test A disease control rating,[1]; test suspension 250 ppm,100%
same,Test B disease control rating,[2]; test suspension 250 ppm,87%
same,Test C disease control rating,[3]; test suspension 250 ppm,100%
COCC(COC)NC(=O)c1csc(Cc2ccc(-c3noc(C(F)(F)F)n3)cc2)n1 [compound 489],Test A disease control rating,[1]; [5],100%
same,Test B disease control rating,[2]; [6],92* %
same,Test C disease control rating,[3]; [5],99%
O=C(NCCn1cccn1)c1cnn(COc2ccc(-c3noc(C(F)(F)F)n3)cc2)c1 [compound 215],Test A disease control rating,[1]; [4],99%
same,Test B disease control rating,[2]; test suspension 250 ppm,90* %
same,Test C disease control rating,[3]; test suspension 10 ppm,74%
CCOC(=O)c1cnn(Cn2nc(-c3noc(C(F)(F)F)n3)ccc2=O)c1 [compound 346],Test A disease control rating,[1]; [4],0%
same,Test B disease control rating,[2]; test suspension 250 ppm,0* %
same,Test C disease control rating,[3]; test suspension 10 ppm,0%
O=C(NCC(F)(F)F)c1coc(COc2ccc(-c3noc(C(F)(F)F)n3)cc2)n1 [compound 465],Test A disease control rating,[1]; [5],100%
same,Test B disease control rating,[2]; [6],0* %
same,Test C disease control rating,[3]; [5],80%
C#CCOC(=O)c1cnn(Cc2ccc(-c3noc(C(F)(F)F)n3)cc2)c1 [compound 56],Test A disease control rating,[1]; [4],100%
same,Test B disease control rating,[2]; test suspension 100 ppm (** next to rating),68** %
same,Test C disease control rating,[3]; test suspension 10 ppm,100%
COCCNC(=O)c1coc(COc2ccc(-c3noc(C(F)(F)F)n3)cc2)n1 [compound 464],Test A disease control rating,[1]; [5],79%
same,Test B disease control rating,[2]; [6],94* %
same,Test C disease control rating,[3]; [5],23%
FC(F)(F)c1nc(-c2ccc(Cn3ccc(-c4ccc(Cl)cc4)n3)cc2)no1 [compound 122],Test A disease control rating,[1]; test suspension 250 ppm,100%
same,Test B disease control rating,[2]; test suspension 250 ppm,0%
same,Test C disease control rating,[3]; test suspension 250 ppm,68%
"N#CCOC(=O)c1cnn(Cc2ccc(-c3noc(C(F)(F)F)n3)cc2)c1 [Compound 57, cyanomethyl 1-[[4-[5-(trifluoromethyl)-1,2,4-oxadiazol-3-yl]phenyl]methyl]-1H-pyrazole-4-carboxylate]",pest or weed control at 10 µg/mL,"[1]; Phakopsora pachyrhizi, 216 h, test suspension 10 ppm, 100 = 100% disease control, 0 = no control, read-out: Test A disease control rating",100%
same,pest or weed control at 100 µg/mL,"[2]; Zymoseptoria tritici, 456 h, test suspension 100 ppm (** next to rating), read-out: Test B disease control rating",99%
same,pest or weed control at 10 µg/mL,"[3]; Puccinia recondita, 168 h, test suspension 10 ppm, read-out: Test C disease control rating",100%
CC1(C)OCC(COC(=O)c2cnn(Cc3ccc(-c4noc(C(F)(F)F)n4)cc3)c2)O1 (stereo not drawn) [compound 496],Test A disease control rating,[1]; [5],100%
same,Test B disease control rating,[2]; [6],48* %
same,Test C disease control rating,[3]; [5],0%
CN(C)C(=O)C1=NOC(Cn2cc(-c3noc(C(F)(F)F)n3)cn2)C1 (stereo not drawn) [compound 306],Test A disease control rating,[1]; test suspension 50 ppm,0%
same,Test B disease control rating,[2]; test suspension 250 ppm,10* %
same,Test C disease control rating,[3]; test suspension 50 ppm,0%
